Results from US12612410B2 (CHILDREN'S HOSPITAL MEDICAL CENTER, priority 2020, dated 2026).

Tests used:
IRAK1 = target: T1, IRAK1 (Homo sapiens, UniProt P51617); assay: RBC HotSpot Kinase Assay, IRAK1; type: biochemical; settings: isolated kinase, 33P-ATP
T1 construct: purchased Reaction Biology (RBC), HotSpot kinase assay
Method in brief: (§1)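 Kinase domain constructs, possibly truncated, were assayed radiometrically with 33P-ATP and substrate after 20 min compound preincubation, reacting 2 h at room temp.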

MOLM14 D835Y cells = assay: MOLM14 D835Y cell viability assay (Cell Titer Glo); type: cell-based; settings: Homo sapiens, MOLM-14, 48 h
Protocol: (§2) Both cell lines have activated FLT3 receptors, each of which carry additional resistance mutations in the kinase domain (D835Y and F691L, respectively).
(§3) MOLM14 D835Y and MOLM14 F691L cells were grown in RPMI-1640 media supplemented with 20% fetal bovine serum (FBS). For viability/cytotoxicity assessments, cells were seeded into 1536-well white polystyrene tissue culture-treated Greiner plates using a Multidrop Combi dispenser (ThermoFisher), in final volume 5 μL of growth media per well, at a density of 1000 cells per well. After cell addition, 23 nL of test compound were transferred into individual wells (22 doses tested for each test compound, with a 1:2 dilution series starting at 10 μM) via a 1536 pin-tool. Bortezomib (final concentration 2.3 μM) was used as a positive control for cell cytotoxicity. Plates were incubated for 48 hours at standard incubator conditions covered by a stainless steel gasketed lid to prevent evaporation. 48 hours post compound addition, 3 μL of Cell Titer Glo (Promega) were added to each well and plates were incubated at room temperature for 15 minutes with the stainless-steel lid in place. Luminescence readings were taken using a Viewlux imager (PerkinElmer) with a 2 second exposure time per plate.

MOLM14 F691L cells = assay: MOLM14 F691L cell viability assay (Cell Titer Glo); type: cell-based; settings: Homo sapiens, MOLM-14, 48 h
Protocol: as §2, §3

IRAK4 = target: T2, IRAK4 (Homo sapiens, UniProt Q9NWZ3); assay: RBC HotSpot Kinase Assay, IRAK4; type: biochemical; design: purchased Reaction Biology (RBC), HotSpot kinase assay; settings: isolated kinase, 33P-ATP
T2 sequence (Q9NWZ3 1-460): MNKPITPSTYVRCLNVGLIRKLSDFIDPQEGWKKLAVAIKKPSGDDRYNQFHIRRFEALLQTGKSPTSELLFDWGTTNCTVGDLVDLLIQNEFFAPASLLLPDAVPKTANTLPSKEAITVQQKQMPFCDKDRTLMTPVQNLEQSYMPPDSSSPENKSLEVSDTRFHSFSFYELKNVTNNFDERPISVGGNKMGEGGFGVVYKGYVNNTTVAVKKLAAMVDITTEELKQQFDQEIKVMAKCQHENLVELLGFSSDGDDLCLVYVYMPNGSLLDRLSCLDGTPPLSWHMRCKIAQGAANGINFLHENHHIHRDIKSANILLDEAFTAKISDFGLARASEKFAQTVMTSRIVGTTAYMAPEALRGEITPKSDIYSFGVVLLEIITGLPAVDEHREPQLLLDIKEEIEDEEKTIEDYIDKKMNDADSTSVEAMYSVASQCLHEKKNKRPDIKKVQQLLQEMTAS
Method in brief: as §1

FLT3 = target: T3, FLT3 (Homo sapiens, UniProt P36888); assay: RBC HotSpot Kinase Assay, FLT3; type: biochemical; design: purchased Reaction Biology (RBC), HotSpot kinase assay; settings: isolated kinase, 33P-ATP
T3 sequence (P36888 27-993): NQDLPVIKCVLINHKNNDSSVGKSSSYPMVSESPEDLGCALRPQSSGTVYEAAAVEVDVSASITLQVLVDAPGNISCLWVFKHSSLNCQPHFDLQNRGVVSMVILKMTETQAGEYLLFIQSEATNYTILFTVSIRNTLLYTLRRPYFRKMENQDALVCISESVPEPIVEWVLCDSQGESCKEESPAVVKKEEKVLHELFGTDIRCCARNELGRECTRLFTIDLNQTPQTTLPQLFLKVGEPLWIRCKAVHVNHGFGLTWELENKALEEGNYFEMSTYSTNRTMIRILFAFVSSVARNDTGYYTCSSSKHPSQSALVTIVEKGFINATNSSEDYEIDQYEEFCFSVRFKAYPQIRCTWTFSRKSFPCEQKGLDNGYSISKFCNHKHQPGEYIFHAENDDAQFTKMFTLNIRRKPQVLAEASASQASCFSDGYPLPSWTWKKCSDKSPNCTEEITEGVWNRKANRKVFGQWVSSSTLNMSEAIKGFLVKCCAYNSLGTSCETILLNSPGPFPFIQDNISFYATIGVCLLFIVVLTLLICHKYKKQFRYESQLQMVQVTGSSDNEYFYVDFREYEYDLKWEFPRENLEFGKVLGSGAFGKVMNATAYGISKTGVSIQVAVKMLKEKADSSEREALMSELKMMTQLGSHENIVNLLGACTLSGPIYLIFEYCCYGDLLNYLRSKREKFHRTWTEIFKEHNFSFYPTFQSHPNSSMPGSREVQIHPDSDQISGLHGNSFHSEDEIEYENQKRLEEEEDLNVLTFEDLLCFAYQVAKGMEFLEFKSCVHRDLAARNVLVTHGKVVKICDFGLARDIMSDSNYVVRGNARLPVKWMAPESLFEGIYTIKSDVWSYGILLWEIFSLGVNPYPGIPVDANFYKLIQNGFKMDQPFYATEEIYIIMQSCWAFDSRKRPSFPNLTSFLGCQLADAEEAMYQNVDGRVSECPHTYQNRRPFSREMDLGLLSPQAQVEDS
Method in brief: as §1

T1 sequence (P51617 whole entry): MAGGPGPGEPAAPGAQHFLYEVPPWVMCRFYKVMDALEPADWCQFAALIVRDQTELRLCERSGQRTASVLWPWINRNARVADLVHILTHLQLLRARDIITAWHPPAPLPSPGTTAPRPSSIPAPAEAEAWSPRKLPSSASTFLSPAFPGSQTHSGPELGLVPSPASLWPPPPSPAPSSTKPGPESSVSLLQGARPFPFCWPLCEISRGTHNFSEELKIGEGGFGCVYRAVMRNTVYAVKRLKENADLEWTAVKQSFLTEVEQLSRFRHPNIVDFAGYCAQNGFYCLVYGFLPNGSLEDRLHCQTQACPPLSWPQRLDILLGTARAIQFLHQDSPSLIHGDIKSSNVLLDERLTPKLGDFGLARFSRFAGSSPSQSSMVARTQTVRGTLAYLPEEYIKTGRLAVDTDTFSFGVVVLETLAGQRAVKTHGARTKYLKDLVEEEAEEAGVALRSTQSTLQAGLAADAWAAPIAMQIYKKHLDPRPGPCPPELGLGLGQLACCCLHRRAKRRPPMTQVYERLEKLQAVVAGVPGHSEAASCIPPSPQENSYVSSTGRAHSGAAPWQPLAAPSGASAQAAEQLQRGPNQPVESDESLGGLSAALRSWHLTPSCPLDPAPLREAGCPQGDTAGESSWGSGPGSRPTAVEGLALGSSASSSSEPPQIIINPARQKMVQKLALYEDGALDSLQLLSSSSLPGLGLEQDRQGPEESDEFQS

Compound	IC50 (IRAK1)	IC50 (MOLM14 D835Y cells)	IC50 (MOLM14 F691L cells)	IC50 (IRAK4)	IC50 (FLT3)
F[C@H]1CCNC[C@@H]1Nc1cccc(-c2cnc3cnc(C4(C(F)(F)F)CC4)cn23)n1 [Compound 13, N-((3S,4S)-4-fluoropiperidin-3-yl)-6-(6-(1-(trifluoromethyl)cyclopropyl)imidazo[1,2-a]pyrazin-3-yl)pyridin-2-amine]	77 nM	21 nM	159 nM	5 nM	< 0.5 nM
FC(F)c1cn2c(-c3cccc(N[C@@H]4CCCNC4)n3)cnc2cn1 [Compound 17, (R)-6-(6-(difluoromethyl)imidazo[1,2-a]pyrazin-3-yl)-N-(piperidin-3-yl)pyridin-2-amine]	288 nM	10 nM	88 nM	5 nM	< 0.5 nM
FC(F)c1cn2c(-c3cccc(N[C@H]4CNC[C@@H]4C(F)(F)F)n3)cnc2cn1 [Compound 19, 6-(6-(difluoromethyl)imidazo[1,2-a]pyrazin-3-yl)-N-((3R,4S)-4-(trifluoromethyl)pyrrolidin-3-yl)pyridin-2-amine]	32 nM	2 nM	19 nM	< 0.5 nM	< 0.5 nM
CC(C)(O)c1cn2c(-c3cccc(N[C@H]4CNC[C@@H]4F)n3)cnc2cn1 [Compound 28, 2-(3-(6-(((3S,4S)-4-fluoropyrrolidin-3-yl)amino)pyridin-2-yl)imidazo[1,2-a]pyrazin-6-yl)propan-2-ol]	220 nM	94 nM	502 nM	0.7 nM	< 0.5 nM
FC(F)(F)COc1cn2c(-c3cccc(N[C@H]4CNCC45CC5)n3)cnc2cn1 [Compound 40, (R)-N-(6-(6-(2,2,2-trifluoroethoxy)imidazo[1,2-a]pyrazin-3-yl)pyridin-2-yl)-5-azaspiro[2.4]heptan-7-amine]	101 nM	23 nM	152 nM	2 nM	< 0.5 nM
c1cc(N[C@@H]2CCCNC2)nc(-c2cnc3cnc(C4CC4)cn23)c1 [Compound 48, (R)-6-(6-cyclopropylimidazo[1,2-a]pyrazin-3-yl)-N-(piperidin-3-yl)pyridin-2-amine]	60 nM	9 nM	38 nM	3 nM	0.6 nM
F[C@H]1CNC[C@@H]1Nc1cccc(-c2cnc3cnccn23)n1 [Compound 68, N-((3S,4S)-4-fluoropyrrolidin-3-yl)-6-(imidazo[1,2-a]pyrazin-3-yl)pyridin-2-amine]	727 nM	47 nM	473 nM	4 nM	< 0.5 nM
FC(F)COc1cn2c(-c3cccc(N[C@@H]4CCCNC4)n3)cnc2cn1 [Compound 75, (R)-6-(6-(2,2-difluoroethoxy)imidazo[1,2-a]pyrazin-3-yl)-N-(piperidin-3-yl)pyridin-2-amine]	504 nM	15 nM	158 nM	4 nM	< 0.5 nM
O=S1(=O)CCCN1c1cn2c(-c3cccc(N[C@H]4CNC[C@@H]4F)n3)cnc2cn1 [Compound 95, 2-(3-(6-(((3S,4S)-4-fluoropyrrolidin-3-yl)amino)pyridin-2-yl)imidazo[1,2-a]pyrazin-6-yl)isothiazolidine 1,1-dioxide]	43 nM	21 nM	193 nM	1 nM	< 0.5 nM
O=S1(=O)CCCCN1c1cn2c(-c3nc(N[C@@H]4CCCNC4)c(F)cc3F)cnc2cn1 [Compound 101, (R)-2-(3-(3,5-difluoro-6-(piperidin-3-ylamino)pyridin-2-yl)imidazo[1,2-a]pyrazin-6-yl)-1,2-thiazinane 1,1-dioxide]	175 nM	217 nM	1540 nM	24 nM	0.9 nM
O=S1(=O)CCCCN1c1cn2c(-c3nc(N[C@H]4CNC[C@@H]4F)c(F)cc3F)cnc2cn1 [Compound 102, 2-(3-(3,5-difluoro-6-(((3S,4S)-4-fluoropyrrolidin-3-yl)amino)pyridin-2-yl)imidazo[1,2-a]pyrazin-6-yl)-1,2-thiazinane 1,1-dioxide]	281 nM	386 nM	4330 nM	6 nM	2 nM
O=S1(=O)CCCCN1c1cn2c(-c3nc(N[C@H]4CNCC[C@@H]4F)c(F)cc3F)cnc2cn1 [Compound 103, 2-(3-(3,5-difluoro-6-(((3S,4S)-4-fluoropiperidin-3-yl)amino)pyridin-2-yl)imidazo[1,2-a]pyrazin-6-yl)-1,2-thiazinane 1,1-dioxide]	265 nM	193 nM	1370 nM	13 nM	0.9 nM
O=S1(=O)CCCN1c1cn2c(-c3nc(N[C@@H]4CCCNC4)c(F)cc3F)cnc2cn1 [Compound 104, (R)-2-(3-(3,5-difluoro-6-(piperidin-3-ylamino)pyridin-2-yl)imidazo[1,2-a]pyrazin-6-yl)isothiazolidine 1,1-dioxide]	9 nM	11 nM	86 nM	1 nM	< 0.5 nM
O=S1(=O)CCCN1c1cn2c(-c3nc(N[C@H]4CNC[C@@H]4F)c(F)cc3F)cnc2cn1 [Compound 105, 2-(3-(3,5-difluoro-6-(((3S,4S)-4-fluoropyrrolidin-3-yl)amino)pyridin-2-yl)imidazo[1,2-a]pyrazin-6-yl)isothiazolidine 1,1-dioxide]	22 nM	55 nM	686 nM	1 nM	< 0.5 nM
O=S1(=O)CCCN1c1cn2c(-c3nc(N[C@H]4CNCC[C@@H]4F)c(F)cc3F)cnc2cn1 [Compound 106, 2-(3-(3,5-difluoro-6-(((3S,4S)-4-fluoropiperidin-3-yl)amino)pyridin-2-yl)imidazo[1,2-a]pyrazin-6-yl)isothiazolidine 1,1-dioxide]	21 nM	17 nM	122 nM	3 nM	< 0.5 nM
O=C1CCCN1c1cn2c(-c3nc(N[C@H]4CNC[C@@H]4F)c(F)cc3F)cnc2cn1 [Compound 109, 1-(3-(3,5-difluoro-6-(((3S,4S)-4-fluoropyrrolidin-3-yl)amino)pyridin-2-yl)imidazo[1,2-a]pyrazin-6-yl)pyrrolidin-2-one]	52 nM	137 nM	1930 nM	4 nM	0.7 nM
O=C1COCCN1c1cn2c(-c3cccc(N[C@H]4CNC[C@@H]4F)n3)cnc2cn1 [Compound 110, 4-(3-(6-(((3S,4S)-4-fluoropyrrolidin-3-yl)amino)pyridin-2-yl)imidazo[1,2-a]pyrazin-6-yl)morpholin-3-one]	4240 nM	154 nM	1450 nM	98 nM	3 nM
